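Assay format: 96-well plates, 48-hour exposure. GI50 is the concentration that inhibits growth by half. TGI marks complete inhibition of growth.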
What was measured:
Test in all cases: growth of human tumour cells (NCI), 48 h
[1] = test system: 786-0 renal
[2] = test system: COLO 205 colon
[3] = test system: HOP-92 NSCLC
[4] = test system: IGROV1 ovarian
[5] = test system: M14 melanoma
[6] = test system: NCI/ADR-RES ovarian
[7] = test system: RXF 393 renal
[8] = test system: SK-MEL-2 melanoma
[9] = test system: SK-MEL-28 melanoma
[10] = test system: SK-OV-3 ovarian

SMILES | GI50 [1] | TGI [1] | GI50 [2] | TGI [2] | GI50 [3] | TGI [3] | GI50 [4] | TGI [4] | GI50 [5] | TGI [5] | GI50 [6] | TGI [6] | GI50 [7] | TGI [7] | GI50 [8] | TGI [8] | GI50 [9] | TGI [9] | GI50 [10] | TGI [10]
c1ccc2nc(OCCN3CC3)ccc2c1 | 14.3 µM | 37.3 µM | 1.98 µM | 5 µM | 1.9 µM | 9.44 µM | 2.24 µM | 10.8 µM | 8.15 µM | 23.9 µM | 18.1 µM | 44.5 µM | 14.6 µM | 32.5 µM | 13.5 µM | 31.6 µM | 14.5 µM | 29.2 µM | 16.8 µM | 33.6 µM
COc1cc([C@@H]2c3cc4c(cc3C(OC3O[C@@H]5COC(C)O[C@H]5[C@H](O)[C@H]3O)C3COC(=O)[C@@H]32)OCO4)cc(OC)c1O (stereo not given in full) | 0.976 µM | 3.67 µM | 3.68 µM | 21.3 µM | 0.397 µM | 9.97 µM | 2.95 µM | > 50 µM | 1.37 µM | 7.83 µM | 15.4 µM | > 50 µM | 0.982 µM | 8.31 µM | 7.37 µM | 31.9 µM | 2.12 µM | > 34.6 µM | 1.58 µM | 14.2 µM
